Experimental data: article PMC7052193, “Nanobody-enabled monitoring of kappa opioid receptor states” (Nature Communications, 2020)
Several values for one entry are separate records, joined by “and”; a condition that tells them apart may be missing. Equal values may be shown once. Read-outs that look alike come from different tables or passages of the source.

How the values were obtained:
5-HT4R = format: cell-based, human; conditions: Gαs, 5-HT4R wt
5-HT2AR [1] = format: cell-based, human; conditions: 5-HT2AR-KOR, Log [Drug]
5-HT2AR [2] = format: cell-based, human; conditions: 5-HT2AR-KOR, Log [5-HT]
HRH2 [3] = conditions: Gαs, HRH2 wt
HRH2 [4] = conditions: Log [Histamine]
HRH2 [5] = biological target: HRH2 (Homo sapiens, UniProt P25021); conditions: Log [Histamine]
kappa receptor = biological target: kappa receptor; set-up: method as in Thomas JB et al., 2001; conditions: previously reported; ref Thomas JB et al., 2001; read-out: Ki, kappa receptor binding assay; cited from earlier work
KOR [6] = biological target: T1, KOR (Homo sapiens, UniProt P41145); test: cAMP inhibition assay (GloSensor); format: cell-based
human wild-type KOR = human wild-type KOR (Homo sapiens, UniProt P41145); test: [3H]-JDTic association and dissociation assays; format: binding
Procedure: Radioligand dissociation and association assays were performed in parallel using the same concentrations of radioligand, membrane preparations and binding buffer (50 mM Tris, 10 mM MgCl2, 0.1 mM EDTA, 0.1% BSA, pH 7.4).
Time points spanned 1 min to 6 h, depending on experimental conditions and radioligand. The association (Kon) and dissociation (Koff) values were calculated using the Prism model:
Association kinetics to obtain kon5 Y=Ymax*(1−e^−kob*X).
Dissociation—one phase exponential decay to obtain koff6 Y=YO−NS*e^−K*X,

human KOR [7] = biological target: T2, human KOR (Homo sapiens, UniProt P41145, R263A); test: BRET assay, KOR-Rluc and Nb6-mVenus: Nb6 binding / agonist-induced dissociation; format: cell-based
T2 construct: expressed in transfected cells; host or cells: HEK 293T

human KOR [8] = biological target: T3, human KOR (Homo sapiens, UniProt P41145, R270M); test: as above; format: cell-based
T3 construct: expressed in transfected cells; host or cells: HEK 293T

human KOR [9] = biological target: T4, human KOR (Homo sapiens, UniProt P41145, D266L); test: as above; format: cell-based
T4 construct: expressed in transfected cells; host or cells: HEK 293T

human KOR [10] = biological target: human KOR (Homo sapiens, UniProt P41145, R274A); test: as above; format: cell-based
human KOR [11] = biological target: human KOR (Homo sapiens, UniProt P41145, R270A); test: as above; format: cell-based
human KOR [12] = biological target: human KOR (Homo sapiens, UniProt P41145, D266A); test: as above; format: cell-based
human KOR [13] = biological target: T5, human KOR (Homo sapiens, UniProt P41145, R257A); test: as above; format: cell-based
T5 construct: expressed in transfected cells; host or cells: HEK 293T

KOR [14] = biological target: T1, KOR; test: as above; format: cell-based
human KOR [15] = biological target: T6, human KOR (Homo sapiens, UniProt P41145, R271A); test: as above; format: cell-based
T6 construct: expressed in transfected cells; host or cells: HEK 293T

human KOR [16] = biological target: human KOR (Homo sapiens, UniProt P41145, L253A); test: as above; format: cell-based
GPR149 = format: cell-based; conditions: GPR149-KOR and Nb6
5-HT2AR [17] = biological target: T7, 5-HT2AR (Homo sapiens, UniProt P28223); format: cell-based; conditions: wild-type 5-HT2AR
T7 construct: expressed in transfected cells; host or cells: HEK 293T

GPR151 [18] = format: cell-based; conditions: GPR151-KOR and Nb6
GPR151 [19] = biological target: T8, GPR151 (Homo sapiens, UniProt Q8TDV0); format: cell-based; conditions: GPR151 and Nb6
T8 construct: expressed in transfected cells; host or cells: HEK 293T
T8 sequence (Q8TDV0 1-419): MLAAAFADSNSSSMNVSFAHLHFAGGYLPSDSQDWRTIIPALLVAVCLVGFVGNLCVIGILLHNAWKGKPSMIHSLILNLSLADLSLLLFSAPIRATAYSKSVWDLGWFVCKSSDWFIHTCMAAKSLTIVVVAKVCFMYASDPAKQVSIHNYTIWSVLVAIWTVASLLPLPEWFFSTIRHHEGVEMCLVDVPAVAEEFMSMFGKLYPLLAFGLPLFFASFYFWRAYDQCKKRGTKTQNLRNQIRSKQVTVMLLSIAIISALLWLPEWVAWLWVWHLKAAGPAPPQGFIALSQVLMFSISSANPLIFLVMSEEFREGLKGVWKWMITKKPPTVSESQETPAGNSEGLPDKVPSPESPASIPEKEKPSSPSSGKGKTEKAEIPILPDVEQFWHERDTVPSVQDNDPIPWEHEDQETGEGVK

[20] = biological target: T9, human KOR containing C-terminal Renilla luciferase (RLuc8) (human, UniProt P41145); test: FRET or BRET; kinetic BRET in HEK 293T cells co-expressing KOR-Rluc and Nb6-mVenus or Nb39-mVenus; 10 µM Sal A, then 10 µM JDTic added at the indicated times; t1/2 from one phase exponential decay; conditions: partners not purified
T9 construct: kappa opioid receptor, human, wild type; also called KOR-Rluc; kappa opioid receptor; source: HEK 293T, co-transfected, in live cells; not shown: RLuc8, C-terminal, kept

ETA = biological target: T10, ETA (Homo sapiens, UniProt P25101); format: cell-based; conditions: wild-type ETA
T10 construct: expressed in transfected cells; host or cells: HEK 293T
T10 sequence (P25101 21-427): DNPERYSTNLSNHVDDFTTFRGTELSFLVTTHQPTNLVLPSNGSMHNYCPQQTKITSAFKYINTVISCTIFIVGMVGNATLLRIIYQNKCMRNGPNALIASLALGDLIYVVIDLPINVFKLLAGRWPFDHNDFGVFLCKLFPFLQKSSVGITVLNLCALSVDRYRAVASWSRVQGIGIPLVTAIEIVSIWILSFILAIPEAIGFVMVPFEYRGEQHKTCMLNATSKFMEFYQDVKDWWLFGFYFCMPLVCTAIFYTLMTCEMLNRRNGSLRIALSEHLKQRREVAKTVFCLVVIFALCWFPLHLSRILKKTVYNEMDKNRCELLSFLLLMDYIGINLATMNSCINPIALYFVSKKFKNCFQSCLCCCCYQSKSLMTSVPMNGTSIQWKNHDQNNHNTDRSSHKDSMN

GPR111 = test: BRET assay GPR111 / GPR111-KOR and Nb6, basal state; format: cell-based
[21] = read-out: EC50, G protein activation

T3 sequence (P41145 whole entry R270M): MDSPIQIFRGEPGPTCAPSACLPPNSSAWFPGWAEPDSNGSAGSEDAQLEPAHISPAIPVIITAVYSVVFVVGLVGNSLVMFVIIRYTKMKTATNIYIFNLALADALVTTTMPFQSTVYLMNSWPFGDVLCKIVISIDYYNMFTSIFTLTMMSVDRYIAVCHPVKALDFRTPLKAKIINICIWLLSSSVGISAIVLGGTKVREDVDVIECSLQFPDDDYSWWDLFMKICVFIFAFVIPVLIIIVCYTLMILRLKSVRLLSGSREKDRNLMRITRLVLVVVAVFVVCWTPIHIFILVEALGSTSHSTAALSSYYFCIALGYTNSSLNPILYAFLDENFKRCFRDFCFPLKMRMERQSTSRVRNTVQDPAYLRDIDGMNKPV
T4 sequence (P41145 whole entry D266L): as the sequence (P41145 whole entry R270M) above, with D266L, M270R counted along it
T2 sequence (P41145 whole entry R263A): as the sequence (P41145 whole entry R270M) above, with R263A, M270R counted along it
T5 sequence (P41145 whole entry R257A): as the sequence (P41145 whole entry R270M) above, with R257A, M270R counted along it
Chain of HRH2 (Homo sapiens, UniProt P25021) (P25021 whole entry): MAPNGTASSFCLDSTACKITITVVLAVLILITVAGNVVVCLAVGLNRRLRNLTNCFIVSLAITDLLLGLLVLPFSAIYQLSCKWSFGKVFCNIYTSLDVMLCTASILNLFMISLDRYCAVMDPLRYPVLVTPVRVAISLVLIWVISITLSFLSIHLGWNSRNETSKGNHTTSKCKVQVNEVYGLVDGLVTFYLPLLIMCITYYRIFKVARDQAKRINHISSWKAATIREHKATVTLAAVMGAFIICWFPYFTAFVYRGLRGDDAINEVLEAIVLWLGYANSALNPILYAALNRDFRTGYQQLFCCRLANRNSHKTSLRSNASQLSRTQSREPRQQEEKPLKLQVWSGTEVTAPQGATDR
T1 sequence (P41145 whole entry): as the sequence (P41145 whole entry R270M) above, with M270R counted along it
Chain of human wild-type KOR (P41145 whole entry): as the sequence (P41145 whole entry R270M) above, with M270R counted along it
T6 sequence (P41145 whole entry R271A): as the sequence (P41145 whole entry R270M) above, with M270R, R271A counted along it
T9 sequence (P41145 whole entry): as the sequence (P41145 whole entry R270M) above, with M270R counted along it
T7 sequence (P28223 whole entry): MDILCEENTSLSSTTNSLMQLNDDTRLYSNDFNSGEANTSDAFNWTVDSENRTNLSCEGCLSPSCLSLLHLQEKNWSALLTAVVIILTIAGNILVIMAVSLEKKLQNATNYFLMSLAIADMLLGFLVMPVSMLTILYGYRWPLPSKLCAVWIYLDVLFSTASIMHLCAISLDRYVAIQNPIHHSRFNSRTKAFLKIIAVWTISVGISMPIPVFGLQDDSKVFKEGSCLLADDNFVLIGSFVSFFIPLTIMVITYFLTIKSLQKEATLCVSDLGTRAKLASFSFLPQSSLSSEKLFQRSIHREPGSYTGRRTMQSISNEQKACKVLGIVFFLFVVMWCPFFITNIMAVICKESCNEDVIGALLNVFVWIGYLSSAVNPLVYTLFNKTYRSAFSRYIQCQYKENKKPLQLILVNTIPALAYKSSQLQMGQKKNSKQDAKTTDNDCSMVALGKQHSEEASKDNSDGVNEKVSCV

NCCc1c[nH]c2ccc(O)cc12 [5-HT]
pEC50 ± SEM, G protein activation (5-HT4R): 8.55 ± 0.13 | EC50 (5-HT4R; [21]): 2.85 nM | Net BRET G protein activation, source data Figure 5c (5-HT2AR [1]; M = -5): 4.77 and 5.378 and 5.642 | Net BRET G protein activation, source data Figure 5c (5-HT2AR [1]; M = -7): 5.149 and 9.509 and 8.117 | Net BRET G protein activation, source data Figure 5c (5-HT2AR [1]; M = -8): 64.908 and 45.488 and 55.524 | Net BRET G protein activation, source data Figure 5c (5-HT2AR [1]; M = -9): 89.3557 and 61.3025 and 75.4781 | Net BRET G protein activation, source data Figure 5c (5-HT2AR [1]; M = -10): 101.409 and 99.4572 and 101.001 | Net BRET G protein activation, source data Figure 5c (5-HT2AR [1]; M = -11): 93.2037 and 102.876 and 98.9921 | Net BRET G protein activation, source data Figure 5c (5-HT2AR [1]; M = -12): 99.8736 and 92.5765 and 96.7631 | Net BRET receptor and Nb6, source data Figure 5b (5-HT2AR [2]; M = -4): 4.555 and 4.236 and 2.584 | Net BRET receptor and Nb6, source data Figure 5b (5-HT2AR [2]; M = -6): 27.0627 and 18.3518 and 18.7135 | Net BRET receptor and Nb6, source data Figure 5b (5-HT2AR [2]; M = -7): 54.7274 and 50.7842 and 46.0256 | Net BRET receptor and Nb6, source data Figure 5b (5-HT2AR [2]; M = -8): 79.692 and 81.7337 and 74.4168 | Net BRET receptor and Nb6, source data Figure 5b (5-HT2AR [2]; M = -9): 96.2676 and 98.9652 and 90.7989 | Net BRET receptor and Nb6, source data Figure 5b (5-HT2AR [2]; M = -10): 102.206 and 99.7037 and 92.1127 | Net BRET receptor and Nb6, source data Figure 5b (5-HT2AR [2]; M = -11): 99.4094 and 102.177 and 98.4133

NCCc1c[nH]cn1 [Histamine]
pEC50 ± SEM, G protein activation (HRH2 [3]): 7.64 ± 0.10 | EC50 (HRH2 [3]; [21]): 23.2 nM | HRH2-KOR (Figure S10) (HRH2 [4]; M -4): 5.219 and 6.229 and 8.754 | HRH2-KOR (Figure S10) (HRH2 [4]; M -8): 49.1583 and 70.3704 | HRH2-KOR (Figure S10) (HRH2 [4]; M -9): 71.8855 and 67.8451 and 91.0774 | HRH2-KOR (Figure S10) (HRH2 [4]; M -10): 90.0673 and 96.633 and 108.754 | HRH2-KOR (Figure S10) (HRH2 [4]; M -11): 95.6229 and 98.6532 and 105.724 | HRH2 wt (Figure S10) (HRH2 [5]; M -4): 0.035 and 0.037 and 0.032 | HRH2 wt (Figure S10) (HRH2 [5]; M -5): 0.04 and 0.037 and 0.043 | HRH2 wt (Figure S10) (HRH2 [5]; M -6): 0.037 and 0.041 and 0.043 | HRH2 wt (Figure S10) (HRH2 [5]; M -7): 0.041 and 0.036 and 0.042 | HRH2 wt (Figure S10) (HRH2 [5]; M -8): 0.038 and 0.039 | HRH2 wt (Figure S10) (HRH2 [5]; M -9): 0.037 and 0.039 and 0.042 | HRH2 wt (Figure S10) (HRH2 [5]; M -10): 0.036 and 0.04 and 0.031 | HRH2 wt (Figure S10) (HRH2 [5]; M -11): 0.029 and 0.038 and 0.037

CC(C)[C@@H](CN1CC[C@@](C)(c2cccc(O)c2)[C@@H](C)C1)NC(=O)[C@H]1Cc2ccc(O)cc2CN1 [JDTic, (3R)-7-hydroxy-N-((1S)-1-[[(3R,4R)-4-(3-hydroxyphenyl)-3,4-dimethyl-1-piperidinyl]methyl]-2-methylpropyl)-1,2,3,4-tetrahydro-3-isoquinolinecarboxamide]
Ki (kappa receptor): 0.3 nM | activity at KOR, Gi-mediated inhibition of cAMP production (KOR [6]): potent inverse agonist | change of binding affinity (Ki) or equilibrium constant (Kd) with KOR in the presence of Nb6 or Nb39 (human wild-type KOR): no significant changes | t1/2 increase, KOR preincubated with Nb6 compared to untreated KOR (human wild-type KOR): ~ 2 fold | BMAX ± SEM (human wild-type KOR; KOR + Nb6): 468 ± 54 CPM | BMAX ± SEM (human wild-type KOR; KOR + Nb39): 423 ± 59 CPM | BMAX ± SEM (human wild-type KOR; KOR wt): 412 ± 46 CPM

B1: Nb6-mVenus (VHH)
VHH: QVQLQESGGGLVQAGESLRLSCAASGTIFRLYDMGWYRRVSGNQRELVASITSGGSTKYGDSVKGRFTISRDNAKNTVYLQMSSLKPEDTAVYYCNAEYRTGIWEELLDGWGQGTQVTVSS
notes: as the chain of m2, nanobody chain of PDB 6VI4; source: HEK 293T, co-transfected, in live cells; not shown: mVenus, C-terminal, kept
Net BRET, KOR mutations with Nb6, source data Figure 3b (human KOR [7]): 0.9862 and 0.9845 and 1.038 and 1.045 and 1.021 and 1.043 | Net BRET, KOR mutations with Nb6, source data Figure 3b (human KOR [8]): 0.05686 and 0.05346 and 0.04737 and 0.04878 and 0.05049 and 0.05323 | Net BRET, KOR mutations with Nb6, source data Figure 3b (human KOR [9]): 0.05761 and 0.05183 and 0.0517 and 0.0557 and 0.08302 and 0.08918 | Net BRET, KOR mutations with Nb6, source data Figure 3b (human KOR [10]): 1.098 and 1.114 and 1.1115 and 1.116 and 1.123 and 1.128 | Net BRET, KOR mutations with Nb6, source data Figure 3b (human KOR [11]): 0.07102 and 0.06841 and 0.07532 and 0.07378 and 0.08027 and 0.09204 | Net BRET, KOR mutations with Nb6, source data Figure 3b (human KOR [12]): 0.1429 and 0.1064 and 0.08886 and 0.09293 | Net BRET, KOR mutations with Nb6, source data Figure 3b (human KOR [13]): 1.007 and 0.9978 and 1.013 and 1.028 and 1.043 and 1.085 | Net BRET, KOR mutations with Nb6, source data Figure 3b (KOR [14]): 1.21 and 1.208 and 1.235 and 1.249 and 1.256 and 1.272 | Net BRET, KOR mutations with Nb6, source data Figure 3b (human KOR [15]): 1.2246 and 1.2 and 1.237 and 1.199 and 1.227 and 1.2457 | Net BRET, KOR mutations with Nb6, source data Figure 3b (human KOR [16]): 1.189 and 1.193 and 1.2037 and 1.27 and 1.206 and 1.301 | BRET receptor and Nb6 in basal state, source data Figure 5e (GPR149): 100.397 and 94.0625 and 97.7156 and 109.725 | interaction with Nb6 in the BRET assay (5-HT2AR [17]): did not display measurable interaction | BRET receptor and Nb6 in basal state, source data Figure 5e (GPR151 [18]): 96.9506 and 102.894 and 103.581 and 99.837 | BRET receptor and Nb6 in basal state, source data Figure 5e (GPR151 [19]): 4.933 and 5.929 and 5.0734 and 5.659 | t1/2 of the decrease in Nb6-KOR BRET after the agonist Sal A [20]: 50 ± 10 s | t1/2 of the increase of the BRET ratio after JDTic (following Sal A) [20]: 75 ± 12 s | interaction with Nb6 in the BRET assay (ETA): did not display measurable interaction | BRET receptor and Nb6 in basal state, source data Figure 5e (GPR111): 96.3553 and 106.675 and 85.5388 and 88.3471
